Source: patent US7745489B2, “Compositions and methods for inhibition of phospholipase A2 mediated inflammation” (The Regents of the University of California, priority 2002, dated 2010)
Where “and” joins values, the source holds several entries; their conditions need not be identical. Identical values can stand only once. Entries after “also recorded” stand apart in the source; their conditions may differ. Like-named read-outs stand apart in the source and are kept apart here. Values belong to the compound of their own block, whether it stands above or below them.

Experiments:
spontaneous movement = settings: rat, in vivo
[1] = tested on: formalin induced flinching; test: Formalin induced flinching; format: in vivo, rat; settings: intrathecal pretreatment 10 min; result in words
P388D1 cells = test: PGE2 release from stimulated P388D1 macrophages; format: cell-based, murine; settings: for inhibition at 50 µM / IC50: Mus musculus; for inhibition at 50 µM: LPS 1 hour then PAF 15 min, maximal dosage tested 50 μM; for IC50: LPS 18 hr, inhibitor added 30 min prior to stimulation; for Block of PGE2 release: long-term LPS stimulation, 50 μM inhibitor, result in words
Protocol: cPLA2 and iPLA2 are expressed in macrophage cells. It was therefore of interest to determine if the PLA2 inhibitors of the invention acted on either or both of cPLA2 and iPLA2 in macrophages. To that end, P388D1 murine macrophages were maintained at 37° C. in a humidified 10% CO2 atmosphere. Cells were grown in Iscove's Modified Dulbecco's Medium (IMDM with 10% fetal calf serum (HyClone Labs, Provo Utah), 100 units/mL penicillin and 100 μg/mL streptomycin (Invitrogen, Carlsbad Calif.). Cells were routinely passaged every 2-3 days when the cells reached 75-80% confluence. Cells used for stimulation were plated at a density of 10^6 cells per well in standard 12 well tissue culture plates and were allowed to adhere overnight.
Macrophages were stimulated by treating P338D1 cells with either lipopolysaccharide (LPS) alone or LPS combined with platelet activating factor (PAF). Briefly, cells were washed twice with starvation media (IMDM containing 0.2% fetal calf serum, 100 units/mL penicillin and 100 μg/mL streptomycin) and then incubated with 1 mL of starvation media for one hour. Cells were then exposed to either 100 ng/mL LPS for 18 hours or 200 ng/mL LPS for one hour. Cells treated with 200 ng/mL LPS were then exposed to 100 nM PAF for 15 minutes. At the end of the stimulation, the media was removed from the cells, cleared of cellular debris by centrifugation and analyzed for prostaglandin E2 (PGE2) levels by enzyme-linked immunoassay (Cayman Chemical, Ann Arbor Mich.).
Inhibitor compounds were dissolved in DMSO and diluted into starvation media prior to addition to cells; the DMSO concentration was kept below 0.5% v/v in all studies. All inhibitors were added 30 minutes prior to stimulation.

[2] = tested on: carrageenan-induced paw edema; test: Rat carrageenan-induced paw edema assay, ip, acute inflammation; format: in vivo; settings: after 3.5 h; for ED50: Rattus norvegicus, carrageenin paw edema test, ip
Protocol: The experiments were conducted on Fisher 344 female rats weighing 200-260 g. Acute anti-inflammatory activity was measured after 3.5 h by reduction of rat paw carrageenan edema, induced by injection of 0.1 mL carrageenan 2% (K100, commercially available) in sterilized saline intradermally into the right footpad. The examined compounds were administered intraperitoneally (ip) simultaneously. Control animals accepted only vehicle.

acetic acid writhing = test: Acetic acid writhing test, analgesic activity; format: in vivo, rat
Protocol: The acetic acid writhing test was used to assess the analgesic activity in rats (reference drug sodium acetylsalicylate, at 1 mmol/kg, 93.4%). The inhibitors were given ip and 30 min later 1 mL/100 g body weight of 0.6% acetic acid was given ip.

cPLA2 = molecular target: T1, cPLA2 (Homo sapiens, UniProt P47712); test: cPLA2 activity on TX-100/PAPC mixed micelles, inhibition by 2-oxoamides; format: biochemical; settings: for Inhibition of cPLA2: result in words
T1 sequence (P47712 1-749): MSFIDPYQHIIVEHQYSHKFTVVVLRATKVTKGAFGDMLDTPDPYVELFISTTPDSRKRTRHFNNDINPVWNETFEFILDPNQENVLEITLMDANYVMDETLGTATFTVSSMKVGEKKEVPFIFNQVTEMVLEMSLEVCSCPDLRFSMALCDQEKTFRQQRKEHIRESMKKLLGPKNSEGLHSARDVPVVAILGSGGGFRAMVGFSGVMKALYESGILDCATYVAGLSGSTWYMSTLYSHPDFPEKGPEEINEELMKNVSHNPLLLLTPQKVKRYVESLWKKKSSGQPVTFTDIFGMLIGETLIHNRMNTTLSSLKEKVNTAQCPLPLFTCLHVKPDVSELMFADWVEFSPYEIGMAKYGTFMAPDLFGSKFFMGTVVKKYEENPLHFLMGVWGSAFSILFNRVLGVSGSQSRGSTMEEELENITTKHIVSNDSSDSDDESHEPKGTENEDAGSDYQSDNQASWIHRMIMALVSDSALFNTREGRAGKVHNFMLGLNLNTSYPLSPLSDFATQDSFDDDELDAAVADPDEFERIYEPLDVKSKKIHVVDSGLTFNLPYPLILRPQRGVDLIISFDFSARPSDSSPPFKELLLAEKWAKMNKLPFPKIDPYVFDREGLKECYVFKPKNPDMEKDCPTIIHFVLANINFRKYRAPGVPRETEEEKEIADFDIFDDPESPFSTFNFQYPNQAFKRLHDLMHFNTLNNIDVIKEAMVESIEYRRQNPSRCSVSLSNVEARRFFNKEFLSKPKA

iPLA2 = molecular target: T2, iPLA2 (Homo sapiens, UniProt O60733); test: iPLA2 activity mixed micelle assay, inhibition by 2-oxoamides; format: biochemical
T2 sequence (O60733 1-806): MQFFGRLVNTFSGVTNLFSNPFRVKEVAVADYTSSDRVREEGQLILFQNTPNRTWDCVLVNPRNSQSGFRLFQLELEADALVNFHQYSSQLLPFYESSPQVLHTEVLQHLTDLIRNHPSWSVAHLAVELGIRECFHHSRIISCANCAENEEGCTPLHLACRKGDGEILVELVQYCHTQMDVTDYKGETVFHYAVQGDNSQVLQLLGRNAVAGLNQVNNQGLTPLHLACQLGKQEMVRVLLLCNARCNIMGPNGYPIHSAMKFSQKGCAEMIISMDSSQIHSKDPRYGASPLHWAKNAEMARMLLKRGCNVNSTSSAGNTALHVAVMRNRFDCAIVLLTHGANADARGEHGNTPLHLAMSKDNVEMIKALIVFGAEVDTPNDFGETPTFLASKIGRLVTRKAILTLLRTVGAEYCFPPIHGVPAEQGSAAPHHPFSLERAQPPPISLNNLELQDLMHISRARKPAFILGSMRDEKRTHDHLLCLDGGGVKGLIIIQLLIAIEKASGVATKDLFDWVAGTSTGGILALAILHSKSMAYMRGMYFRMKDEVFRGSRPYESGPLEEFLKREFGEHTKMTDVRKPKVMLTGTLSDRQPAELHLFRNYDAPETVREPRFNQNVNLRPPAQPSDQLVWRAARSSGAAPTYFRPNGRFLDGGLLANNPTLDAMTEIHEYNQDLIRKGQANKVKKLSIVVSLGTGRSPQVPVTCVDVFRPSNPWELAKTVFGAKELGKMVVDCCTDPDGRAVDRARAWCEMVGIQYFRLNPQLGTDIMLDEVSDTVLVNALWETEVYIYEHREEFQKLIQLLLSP
Excerpt: All of the data above are provided with respect to XI(50), which is the mole fraction of inhibitor in the total substrate interface required to inhibit the enzyme by 50%. Almost all inhibitors of PLA2's partition into the phospholipid surface, because they usually have a hydrophobic nature that helps them bind to the active site of the PLA2. When these inhibitors partition into the surface, an important physical effect called surface dilution comes into play. In this case, the strength of the interaction of PLA2 and an inhibitor depends not on the bulk concentration of the inhibitor (molar units), but on the surface concentration of the inhibitor (mole fraction units).
PLA2 Activity Assays: Following homoginization and centrifugation, the spinal cord supernatants were assayed for cPLA2 or iPLA2 activity using the group specific assays developed in our laboratory (Yang et al., Biochem; 269: 278-288, 1999). Briefly the cPLA2 assay conditions were: 100 μM lipid PAPC/PIP2 (97/3) doping with 1% ^14C labeled PAPC in 400 μM triton X-100 mixed micelles, 100 mM Hepes, pH 7.5, 0.08 mM CaCl2, 0.1 mg/ml BSA and 2 mM DTT. iPLA2 assay conditions were: 100 μM DPPC doping with 1% ^14C labeled DPPC in 400 μM triton X-100 mixed micelles, 100 mM Hepes, pH 7.5, 5 mM EDTA, and 1 mM ATP. The total volume for each assay is 500 μL: 200 μL lipid, 250 μL assay buffer, 50 μL sample. In each case the amount of calcium or EDTA added was adjusted to account for the addition of EDTA in the lysis buffer to give the final concentrations listed above.
Lipid preparation: Lipid was dried under N2 and lyopholized for at least one hour to remove all traces of chloroform. Lipid was then resuspended in […] and triton X-100 and micelles were created by repeated vortexing and heating in hot water until the solution clarified. Samples were incubated with substrate for one hour at 40° C. The assay was then terminated and fatty acid extracted by the modified Dole assay. The amount of radioactive fatty acid released in the assay was determined by scintillation counting. Following analysis the data for the cPLA2 assay was adjusted for contaminating iPLA2 activity as described by Yang, et al. (Yang, et al., Anal. Biochem. 269: 278-288 (1999).

[3] = mixed micelles TX-100 400 μM, PAPC 97 μM, PIP2 3 μM (0.6 mole %)
[4] = Table 3, at 0.020 mole fraction

XI(50) (mole fraction) (iPLA2; Table 3): 0.0158 ± .0009 mole fraction
SMILES: CCC(=O)C(=O)NCCCC(=O)OC [OA19]
Inhibition of cPLA2 (cPLA2): no inhibitory activity; also recorded: no measurable inhibition

Highest Conc. (mole fraction) w/ % inhibition (iPLA2; [4]): 0.020: 31% ± 6%
SMILES: CCNC(=O)C(=O)CC [OA22]

Highest Conc. (mole fraction) w/ % inhibition (iPLA2; [4]): 0.020: 43% ± 4%
SMILES: CCC/C=C\CCNC(=O)C(=O)CC [OA23]

Highest Conc. (mole fraction) w/ % inhibition (iPLA2; [4]): 0.020: 60% ± 6%
SMILES: CCC/C=C\CCNC(=O)C(=O)CC [OA24]

The next lines start with the compound.

SMILES: O=C1O/C(=C/Br)CCC1c1cccc2ccccc12 (stereo not drawn) [BEL, bromoenol lactone]
Effect on spontaneous movement / normal motor function (spontaneous movement): did have such an effect
Effect on spontaneous movement / normal motor function (spontaneous movement; 60 min): suppressed spontaneous movement
Effect on formalin induced flinching [1]: suppression

SMILES: CCCCCCCCCCCCCCC(=O)C(=O)NCCCC(=O)O [OA1, 4-[(2-oxohexadecanoyl)amino]butanoic acid]
inhibition at 50 µM (P388D1 cells): ~60%
IC50 (P388D1 cells): 7.8 µM
Block of PGE2 release (P388D1 cells): completely block
ED50 [2]: 10 µmol/kg
Analgesic activity (acetic acid writhing; ip dose of 0.01 mmol/kg): 92.7%
XI(50) (mole fraction) (cPLA2; Table 2, iPLA2): 0.017 ± 0.009 mole fraction
XI(50) (cPLA2; [3]): 0.017±0.009 mole fraction

SMILES: CCCCCCCCCCC(=O)C(=O)N[C@@H](CCCC)CCC(=O)O [OA4, (4S)-4-[(2-Oxododecanoyl)amino]octanoic acid]
inhibition at 50 µM (P388D1 cells): ~60%
IC50 (P388D1 cells): 5.8 µM
Block of PGE2 release (P388D1 cells): completely block
ED50 [2]: 100 µmol/kg
Analgesic activity (acetic acid writhing; ip dose of 0.1 mmol/kg): 63%
melting point: 50 to 52 °C
XI(50) (mole fraction) (cPLA2; Table 2, iPLA2): 0.009 ± 0.004 mole fraction
XI(50) (cPLA2; [3]): 0.009±0.004 mole fraction and 0.009 mole fraction
XI(50) (cPLA2; mixed micelles TX-100 3 mM, PAPC 1 mM, no PIP2 present): 0.0027±0.0012 mole fraction
Inhibition of cPLA2 (cPLA2): quite potent

SMILES: COC(=O)CCCNC(=O)C(=O)CCCCc1ccccc1 [OA20]
Highest Conc. (mole fraction) w/ % inhibition (iPLA2; Table 3, at 0.091 mole fraction): 0.091: 55% ± 4%
Inhibition of cPLA2 (cPLA2): do not inhibit

SMILES: CCC(=O)C(N)=O [OA21]
Highest Conc. (mole fraction) w/ % inhibition (iPLA2; [4]): 0.020: 38% ± 6%

SMILES: CCC(=O)C(=O)N[C@H]1CCC(=O)OC1 [OA25]
XI(50) (mole fraction) (iPLA2; Table 4): C PLA2: N.D. I PLA2: 0.0142 ± 0.0004 mole fraction
Highest Conc. (mole fraction) w/ % inhibition (cPLA2; Table 4, cPLA2, at 0.091 mole fraction): cPLA2: 0.091: 41% iPLA2: N/A
Inhibition of cPLA2 (cPLA2): fairly poor inhibitor

SMILES: CCNC(=O)OC[C@H](CCC(=O)OC)NC(=O)C(=O)CC [OA26]
XI(50) (mole fraction) (iPLA2; Table 4): 0.018 ± 0.002 mole fraction
XI(50) (mole fraction) (cPLA2; Table 4, cPLA2): 0.028 ± 0.017 mole fraction
Inhibition of cPLA2 (cPLA2): does

SMILES: COc1ccc2c(c1)c(CC(=O)O)c(C)n2C(=O)c1ccc(Cl)cc1 [indomethacin, reference compound]
% inhibition of carrageenan paw edema ([2]; reference drug at 0.011 mmol/kg): 47%

SMILES: CC(=O)Oc1ccccc1C(=O)[O-].[Na+] [sodium acetylsalicylate, reference compound]
Analgesic activity (acetic acid writhing; reference drug at 1 mmol/kg): 93.4%
